These results are taken from patent publication US8173645B2 (Takeda San Diego, Inc., priority 2007, dated 2012).

The target of this experiment is T1, glucokinase (GK), residues 12-465 of the human enzyme (Homo sapiens, UniProt P35557).
T1 construct: I.D. No. 1 corresponds to residues 12-465 of glucokinase; made in house; host or cells: E. coli DH10b-Tlr
T1 sequence (P35557 with tags, fused parts or gaps isoform P35557-2): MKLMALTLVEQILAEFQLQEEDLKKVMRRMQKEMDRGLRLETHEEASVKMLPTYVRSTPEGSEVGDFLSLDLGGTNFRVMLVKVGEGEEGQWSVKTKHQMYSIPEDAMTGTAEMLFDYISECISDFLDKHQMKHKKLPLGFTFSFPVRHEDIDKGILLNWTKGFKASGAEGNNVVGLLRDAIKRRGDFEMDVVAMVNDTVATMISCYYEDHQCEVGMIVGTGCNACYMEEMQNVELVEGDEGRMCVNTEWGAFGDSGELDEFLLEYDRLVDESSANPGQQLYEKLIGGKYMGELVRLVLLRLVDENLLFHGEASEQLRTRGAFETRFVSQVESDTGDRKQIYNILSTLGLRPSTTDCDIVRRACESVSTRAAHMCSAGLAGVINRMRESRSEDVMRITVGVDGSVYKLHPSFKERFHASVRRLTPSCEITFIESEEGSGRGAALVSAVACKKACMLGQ
Description: Enzymatic glucokinase activity assay (KinaseGlo luminescence, ATP consumption). The settings on record: 5 μM ATP, 5 mM Glucose; for EC50: GK activation, Kact = concentration giving 50% of the maximal increase in GK activity, read-out: pKact; for Emax: calculated maximal gain in GK enzyme activity at a saturating concentration of the compound, read-out: % ACTmax. The class given is biochemical. Summed up:
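Activation measured as ATP consumption: residual ATP detected by KinaseGlo luminescence after 60 min at room temperature with 5 μM ATP and 5 mM glucose (Hepes pH 7.2, MgCl2, Brij35, DTT, 2% DMSO). Enzyme was recombinant FLAG-tagged protein from E. coli. Eleven-point twofold series were fitted nonlinearly for pKact and % ACTmax.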

Bounds are passed on as bounds.

As for `O=C(Nc1nccs1)[C@H](CC1CCCCC1)N1CCN(C(=S)Nc2ccccc2OC(F)(F)F)CC1=O` [Example 136, (S)-3-cyclohexyl-2-(2-oxo-4-(2-(trifluoromethoxy)phenylcarbamothioyl)piperazin-1-yl)-N-(thiazol-2-yl)propanamide], the EC50 is 794 to 1260 nM and the Emax was at least 119%.
On the same counts, the results for `O=C(Nc1nccs1)[C@H](CC1CCCCC1)N1CCN(C(=O)Nc2ccc(Cl)cc2)CC1=O` [Example 137, (S)-N-(4-chlorophenyl)-4-(3-cyclohexyl-1-oxo-1-(thiazol-2-ylamino)propan-2-yl)-3-oxopiperazine-1-carboxamide] are at least 3160 nM and at most 74%.
On the same counts, the results for `O=C(Nc1nccs1)[C@H](CC1CCCCC1)N1CCN(C(=O)NCc2ccc(Cl)cc2)CC1=O` [Example 138, (S)-N-(4-chlorobenzyl)-4-(3-cyclohexyl-1-oxo-1-(thiazol-2-ylamino)propan-2-yl)-3-oxopiperazine-1-carboxamide] are at least 3160 nM and at most 74%.
For the compound `O=C(Nc1nccs1)[C@H](CC1CCCCC1)N1CCN(C(=O)Nc2ccc3ccccc3c2)CC1=O` [Example 139, (S)-4-(3-cyclohexyl-1-oxo-1-(thiazol-2-ylamino)propan-2-yl)-N-(naphthalen-2-yl)-3-oxopiperazine-1-carboxamide], the EC50 is at least 3160 nM and the Emax was 74.1 to 97%.
With `O=C(Nc1nccs1)[C@H](CC1CCCCC1)N1CCN(C(=O)NC2CCCC2)CC1=O` [Example 140, (S)-4-(3-cyclohexyl-1-oxo-1-(thiazol-2-ylamino)propan-2-yl)-N-cyclopentyl-3-oxopiperazine-1-carboxamide], the EC50 was at least 3160 nM and the Emax was 74.1 to 97%.
With `O=C(Nc1nccs1)[C@H](CC1CCCCC1)N1CCN(C(=O)Nc2cccc(C(F)(F)F)c2)CC1=O` [Example 141, (S)-4-(3-cyclohexyl-1-oxo-1-(thiazol-2-ylamino)propan-2-yl)-3-oxo-N-(3-(trifluoromethyl)phenyl)piperazine-1-carboxamide], the EC50 is at least 3160 nM and the Emax is 74.1 to 97%.
On the same counts, the results for `O=C(Nc1nccs1)[C@H](CC1CCCCC1)N1CCN(C(=O)Nc2ccc(C(F)(F)F)cc2)CC1=O` [Example 142, (S)-4-(3-cyclohexyl-1-oxo-1-(thiazol-2-ylamino)propan-2-yl)-3-oxo-N-(4-(trifluoromethyl)phenyl)piperazine-1-carboxamide] are at least 3160 nM and at most 74%.
The matching figures for `COc1ccc(CCNC(=O)N2CCN([C@@H](CC3CCCCC3)C(=O)Nc3nccs3)C(=O)C2)cc1OC` [Example 143, (S)-4-(3-cyclohexyl-1-oxo-1-(thiazol-2-ylamino)propan-2-yl)-N-(3,4-dimethoxyphenethyl)-3-oxopiperazine-1-carboxamide]: at least 3160 nM and at least 119%.
The matching figures for `O=C(Nc1nccs1)[C@H](CC1CCCCC1)N1CCN(C(=O)Nc2ccc3sccc3c2)CC1=O` [Example 144, (S)-N-(benzo[b]thiophen-5-yl)-4-(3-cyclohexyl-1-oxo-1-(thiazol-2-ylamino)propan-2-yl)-3-oxopiperazine-1-carboxamide]: at least 3160 nM and at most 74%.
`O=C(Nc1nccs1)[C@H](CC1CCCCC1)N1CCN(C(=O)Nc2ccc3c(c2)OCCO3)CC1=O` [Example 145, (S)-4-(3-cyclohexyl-1-oxo-1-(thiazol-2-ylamino)propan-2-yl)-N-(2,3-dihydrobenzo[b][1,4]dioxin-6-yl)-3-oxopiperazine-1-carboxamide]: the EC50 is at least 3160 nM and the Emax was 74.1 to 97%.
On the same counts, the results for `O=C(Nc1nccs1)[C@H](CC1CCCCC1)N1CCN(C(=O)Nc2ccc(OCc3ccccc3)cc2)CC1=O` [Example 146, (S)-N-(4-(benzyloxy)phenyl)-4-(3-cyclohexyl-1-oxo-1-(thiazol-2-ylamino)propan-2-yl)-3-oxopiperazine-1-carboxamide] are at least 3160 nM and at most 74%.
On to `O=C(Nc1ncc(Cl)s1)C(CC1CCOCC1)N1CCN(S(=O)(=O)c2cccc(F)c2)CC1=O` (stereo not drawn) [Example 147, N-(5-chlorothiazol-2-yl)-2-(4-(3-fluorophenylsulfonyl)-2-oxopiperazin-1-yl)-3-(tetrahydro-2H-pyran-4-yl)propanamide], for which the EC50 lay within 794 to 1260 nM and the Emax is 108 to 119%.
The matching figures for `O=C(Nc1ncc(F)s1)C(CC1CCOCC1)N1CCN(S(=O)(=O)c2cccc(F)c2)CC1=O` (stereo not drawn) [Example 148, 2-(4-(3-fluorophenylsulfonyl)-2-oxopiperazin-1-yl)-N-(5-fluorothiazol-2-yl)-3-(tetrahydro-2H-pyran-4-yl)propanamide]: 794 to 1260 nM and 108 to 119%.
The matching figures for `O=C(Nc1ncc(Cl)s1)[C@H](CC1CCOCC1)N1CCN(S(=O)(=O)c2cccc(F)c2)CC1=O` [Example 150, (S)-N-(5-chlorothiazol-2-yl)-2-(4-(3-fluorophenylsulfonyl)-2-oxopiperazin-1-yl)-3-(tetrahydro-2H-pyran-4-yl)propanamide]: at most 631 nM and 108 to 119%.
The matching figures for `O=C(Nc1ncc(F)s1)[C@H](CC1CCOCC1)N1CCN(S(=O)(=O)c2cccc(F)c2)CC1=O` [Example 152, (S)-2-(4-(3-fluorophenylsulfonyl)-2-oxopiperazin-1-yl)-N-(5-fluorothiazol-2-yl)-3-(tetrahydro-2H-pyran-4-yl)propanamide]: at most 631 nM and at least 119%.
Consider `O=C(Nc1nccs1)[C@H](CC1CCCCC1)N1CCN(S(=O)(=O)c2cccc([N+](=O)[O-])c2)CC1=O` [Example 156, (S)-3-cyclohexyl-2-(4-(3-nitrophenylsulfonyl)-2-oxopiperazin-1-yl)-N-(thiazol-2-yl)propanamide], for which the EC50 was in the range of 1580 to 2510 nM and the Emax is 97.1 to 107%.
On the same counts, the results for `COC(=O)c1cc(C)c(S(=O)(=O)N2CCN([C@@H](CC3CCCCC3)C(=O)Nc3nccs3)C(=O)C2)s1` [Example 157, (S)-methyl 5-(4-(3-cyclohexyl-1-oxo-1-(thiazol-2-ylamino)propan-2-yl)-3-oxopiperazin-1-ylsulfonyl)-4-methylthiophene-2-carboxylate] are 1580 to 2510 nM and at most 74%.
`COC(=O)c1ccc(S(=O)(=O)N2CCN([C@@H](CC3CCCCC3)C(=O)Nc3nccs3)C(=O)C2)o1` [Example 158, (S)-methyl 5-(4-(3-cyclohexyl-1-oxo-1-(thiazol-2-ylamino)propan-2-yl)-3-oxopiperazin-1-ylsulfonyl)furan-2-carboxylate]: the EC50 was at least 3160 nM and the Emax is 74.1 to 97%.
`COC(=O)c1cc(S(=O)(=O)N2CCN([C@@H](CC3CCCCC3)C(=O)Nc3nccs3)C(=O)C2)oc1C` [Example 159, (S)-methyl 5-(4-(3-cyclohexyl-1-oxo-1-(thiazol-2-ylamino)propan-2-yl)-3-oxopiperazin-1-ylsulfonyl)-2-methylfuran-3-carboxylate]: the EC50 was 794 to 1260 nM and the Emax was 97.1 to 107%.
As to `Cc1cc(S(=O)(=O)N2CCN([C@@H](CC3CCCCC3)C(=O)Nc3nccs3)C(=O)C2)c(C(F)(F)F)o1` [Example 160, (S)-3-cyclohexyl-2-(4-(5-methyl-2-(trifluoromethyl)furan-3-ylsulfonyl)-2-oxopiperazin-1-yl)-N-(thiazol-2-yl)propanamide], the EC50 lay within 1580 to 2510 nM and the Emax was 108 to 119%.
On the same counts, the results for `O=C(Nc1nccs1)[C@H](CC1CCCCC1)N1CCN(S(=O)(=O)c2ccc(-c3cnco3)s2)CC1=O` [Example 161, (S)-3-cyclohexyl-2-(4-(5-(oxazol-5-yl)thiophen-2-ylsulfonyl)-2-oxopiperazin-1-yl)-N-(thiazol-2-yl)propanamide] are 1580 to 2510 nM and 97.1 to 107%.
For the compound `COC(=O)c1c(C)oc(C)c1S(=O)(=O)N1CCN([C@@H](CC2CCCCC2)C(=O)Nc2nccs2)C(=O)C1` [Example 162, (S)-methyl 4-(4-(3-cyclohexyl-1-oxo-1-(thiazol-2-ylamino)propan-2-yl)-3-oxopiperazin-1-ylsulfonyl)-2,5-dimethylfuran-3-carboxylate], the EC50 was at least 3160 nM and the Emax is at most 74%.
On the same counts, the results for `Cc1c(S(=O)(=O)N2CCN([C@@H](CC3CCCCC3)C(=O)Nc3nccs3)C(=O)C2)cnn1-c1ccccc1` [Example 163, (S)-3-cyclohexyl-2-(4-(5-methyl-1-phenyl-1H-pyrazol-4-ylsulfonyl)-2-oxopiperazin-1-yl)-N-(thiazol-2-yl)propanamide] are 1580 to 2510 nM and at most 74%.
Turning to `O=C(Nc1nccs1)[C@H](CC1CCCCC1)N1CCN(S(=O)(=O)c2c(Cl)nc3sccn23)CC1=O` [Example 164, (S)-2-(4-(6-chloroimidazo[2,1-b]thiazol-5-ylsulfonyl)-2-oxopiperazin-1-yl)-3-cyclohexyl-N-(thiazol-2-yl)propanamide], the EC50 is at least 3160 nM and the Emax was 108 to 119%.
